In patent US4633014A, “Substituted 3-hydrazinopropionates” (priority 1983, dated 1986):
Counter-ions that a name gives are not always drawn.

Legend:
[1] = system: arrhythmia induced by an intravenous administration of calcium chloride; assay: Antiarrhythmic activity on a model of arrhythmia induced by intravenous calcium chloride (antagonism to calcium) in mice; format: in vivo; details: white mice, 20-40 minutes before
Outline: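 Urethane-anaesthetised (1,200 mg/kg i.p.) white mice of both sexes, 18-25 g, with lead II ECG; 2% CaCl2 infused into the tail vein at 0.01 ml per 2 sec. Doses of CaCl2 producing arrhythmia and heart arrest were determined. Test compounds were given i.p. 20-40 min before infusion.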

[2] = system: white mice; assay: in vivo
Outline: (§1)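 Acute toxicity in white mice of 20-25 g, with compounds given intraperitoneally as aqueous solutions or Twin-80 suspensions. Animals observed for 10 days.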

[3] = in vivo; details: mouse, in vivo, ip
Outline: as §1

Compound | Dose of calcium chloride causing arrythmia in animals under experiment ([1]; intraperitoneal dose 5 mg/kg) | Dose of calcium chloride causing death in animals under experiment ([1]; intraperitoneal dose 5 mg/kg) | Dose of calcium chloride causing arrythmia in animals under experiment ([1]; intraperitoneal dose 15 mg/kg) | Dose of calcium chloride causing death in animals under experiment ([1]; intraperitoneal dose 15 mg/kg) | Relative toxisity to quinidine ([2]; mouse, in vivo, ip, 14400 min) | LD50 at 240 h [3] [mg/kg] | Relative toxisity to quinidine ([2]; white mice, intraperitoneal, relative to quinidine)
CNC(=O)N(C(CC(=O)OC)C(=O)OC)N(C)C (stereo not drawn) [I-55] | 88,7 mg/kg | 112,5 mg/kg | 111,5 mg/kg | 135,0 mg/kg | 14,7 | 2300 | 
COC(=O)CC(C(=O)OC)N(C(=O)Nc1ccccc1)N(C)C (stereo not drawn) [I-56] | 92,4 mg/kg | 108,5 mg/kg | 102,0 mg/kg | 128,0 mg/kg | 20,5 | 3200 | 
COC(=O)CC(C(=O)OC)N(C(=O)NCCCCCCNC(=O)N(C(CC(=O)OC)C(=O)OC)N(C)C)N(C)C (stereo not drawn) [I-57, 3-(2,2-dimethyl-1-/ε-(2-dimethylamino-2-dimethylsuccinato-2'-ylureido-1-yl)hexylcarbamoyl/hydrazino)-2-methoxycarbonylmethylpropionate] | 103,5 mg/kg | 115,0 mg/kg | 132,6 mg/kg | 150,0 mg/kg | > 19,2 | > 3000 | 
COC(=O)CC(C(=O)OC)N(C(=O)c1ccccc1)N(C)C (stereo not drawn) [I-58, 3-(2,2-dimethyl-1-benzoylhydrazino)-3-methoxycarbonyl-methylpropionate] | 97,0 mg/kg | 112,0 mg/kg | 100,5 mg/kg | 118,5 mg/kg | > 19,2 | > 3000 | 
CNC(=S)N(CCC(=O)O)N(C)C [I-59, Sodium salt of 3-(2,2-dimethyl-1-methylthiocarbamoylhydrazino)propionate] | 93,4 mg/kg | 108,6 mg/kg | 112,5 mg/kg | 130,0 mg/kg | 11,5 | 1800 | 
CCCCCCCCOC(=O)CCN(C(=S)Nc1ccccc1)N(C)C [I-60, 3-(2,2-dimethyl-1-phenylthiocarbamoylhydrazino)octylpropionate] | 90,8 mg/kg | 132,5 mg/kg | 107,5 mg/kg | 130,8 mg/kg | 15,5 | 2420 | 
CN(C)N(CCC#N)C(=O)Nc1ccccc1 [I-61, 3-(2,2-dimethyl-1-phenylcarbamoylhydrazino)propionitrile] | 105,0 mg/kg | 128,8 mg/kg | 102,6 mg/kg | 130,0 mg/kg | 8,0 | 1250 | 
CCC(=O)N(CCC#N)N(C)C [I-62, 3-(2,2-dimethyl-1-propionylhydrazino)-propionitrile] | 96,5 mg/kg | 120,5 mg/kg | 98,7 mg/kg | 118,5 mg/kg |  | 930 | 5,9
CN(C)N(CCC#N)C(=O)c1ccccc1F [I-63, 3-(2,2-dimethyl-1-2'-fluorobenzoylhydrazino)propionitrile] | 101,5 mg/kg | 117,3 mg/kg | 112,3 mg/kg | 128,0 mg/kg | 11,8 | 1850 | 
